Results published in patent publication US7786141B2 (Vertex Pharmaceuticals Incorporated, priority 2004, dated 2010).
Read-outs that look alike come from different tables or passages of the source.

Legend:
M1 muscarinic receptor = biological target: T1, M1 muscarinic receptor (Homo sapiens, UniProt P11229); assay: Functional mobilization of intracellular calcium (FLIPR) in M1-CHO cells; assay type: cell-based
T1 construct: expressed in transfected cells; host or cells: CHO (M1-CHO)
T1 sequence (P11229 1-460): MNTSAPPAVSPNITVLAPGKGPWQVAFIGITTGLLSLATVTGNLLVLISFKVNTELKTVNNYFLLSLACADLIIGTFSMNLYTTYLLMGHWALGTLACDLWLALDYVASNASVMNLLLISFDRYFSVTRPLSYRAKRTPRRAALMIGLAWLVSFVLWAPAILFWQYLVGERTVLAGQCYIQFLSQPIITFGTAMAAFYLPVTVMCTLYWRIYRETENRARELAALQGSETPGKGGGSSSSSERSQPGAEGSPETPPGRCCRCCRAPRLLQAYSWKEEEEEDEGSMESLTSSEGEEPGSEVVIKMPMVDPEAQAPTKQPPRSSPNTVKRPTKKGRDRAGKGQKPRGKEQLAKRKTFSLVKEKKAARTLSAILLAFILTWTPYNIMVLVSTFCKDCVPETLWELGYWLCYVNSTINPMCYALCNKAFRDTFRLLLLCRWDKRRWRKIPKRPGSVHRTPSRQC
Summary of the method: (§1)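 Steps: seed M1- or M4-CHO cells 18-24 hrs ahead; load calcium dye with 1 mM probenecid; add test compound (0.5% DMSO final), either alone for agonism or 15 min before EC80 carbachol for inhibition; record FLIPR fluorescence for 60 sec.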

M4 muscarinic receptor = biological target: T2, M4 muscarinic receptor (Homo sapiens, UniProt P08173); assay: Functional mobilization of intracellular calcium (FLIPR) in M4-CHO cells; assay type: cell-based
T2 construct: expressed in transfected cells; host or cells: CHO (M4-CHO)
T2 sequence (P08173 1-479): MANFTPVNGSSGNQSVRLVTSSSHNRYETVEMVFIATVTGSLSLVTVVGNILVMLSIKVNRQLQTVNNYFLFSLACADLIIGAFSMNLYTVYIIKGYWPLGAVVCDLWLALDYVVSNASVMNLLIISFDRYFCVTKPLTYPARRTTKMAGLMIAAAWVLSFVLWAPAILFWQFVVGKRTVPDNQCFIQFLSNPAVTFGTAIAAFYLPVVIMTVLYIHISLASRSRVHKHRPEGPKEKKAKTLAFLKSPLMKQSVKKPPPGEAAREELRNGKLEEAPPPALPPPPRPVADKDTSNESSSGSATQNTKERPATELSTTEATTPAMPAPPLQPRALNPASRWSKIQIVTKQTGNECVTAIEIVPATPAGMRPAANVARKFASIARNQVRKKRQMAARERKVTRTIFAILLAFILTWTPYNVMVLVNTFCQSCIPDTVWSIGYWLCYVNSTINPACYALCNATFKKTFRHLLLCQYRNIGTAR
Summary of the method: as §1

[1] = Table 4, 100% efficacy is the maximum response obtained with the Carbachol control
[2] = Table 4, modulating M1 receptor
[3] = Table 4, modulating M4 receptor
[4] = M1 receptor, calcium mobilization
[5] = M1 receptor, calcium mobilization, read-out: M1 Efficacy
[6] = M4 receptor, calcium mobilization
[7] = M4 receptor, calcium mobilization, read-out: M4 Efficacy
[8] = Table 4, M1 receptor, calcium mobilization (FLIPR)
[9] = Table 4, M4 receptor, calcium mobilization (FLIPR)

SMILES: CC(=O)N1CC2(CCN(C3CC4CCC(C3)N4C(=O)OC(C)C)CC2)c2ccccc21 (centres unmarked) [compound 742]
- Emax (M1 muscarinic receptor; [1]): 25 to 100%
- M1 Activity (M1 muscarinic receptor; [2]): xxx (activity was measured to be less than 2.0 μM)
- Emax (M4 muscarinic receptor; [1]): 25 to 100%
- M4 Activity (M4 muscarinic receptor; [3]): xxx (activity was measured to be less than 2.0 μM)

SMILES: CCOC(=O)N1C2CCC1CC(N1CCC3(CC1)CN(C(=O)NC(C)C)c1ccc(F)cc13)C2 (centres unmarked) [compound 296]
- M1 Activity (M1 muscarinic receptor; [4]): x (activity was measured to be greater than 1.0 μM)
- Emax (M1 muscarinic receptor; [5]): 65 to 85%
- M4 Activity (M4 muscarinic receptor; [6]): x (activity was measured to be greater than 1.0 μM)
- Emax (M4 muscarinic receptor; [7]): 65 to 85%

SMILES: CCCc1ccc2c(c1)C1(CCN(C3CCN(C(=O)OCC)CC3)CC1)CN2C(C)=O [compound 74]
- M1 Activity (M1 muscarinic receptor; [4]): xxx (activity was measured to be less than 0.1 μM)
- Emax (M1 muscarinic receptor; [5]): 65 to 85%
- M4 Activity (M4 muscarinic receptor; [6]): xx (activity was measured to be between 0.1 μM and 1.0 μM)
- Emax (M4 muscarinic receptor; [7]): 65 to 85%

SMILES: COc1ccc(C(=O)N2CCC(N3CCC4(CC3)CN(C(=O)N(C)C)c3ccc(F)cc34)CC2)cc1 [compound 917]
- Emax (M1 muscarinic receptor; [1]): < 25%
- M1 Activity (M1 muscarinic receptor; [8]): x (activity was measured to be greater than 5.0 μM)
- Emax (M4 muscarinic receptor; [1]): < 25%
- M4 Activity (M4 muscarinic receptor; [9]): x (activity was measured to be greater than 5.0 μM)

SMILES: CCOC(=O)N1CCC(N2CCC3(CC2)CN(C(C)=O)c2ccc(C)cc23)CC1 [compound 92]
- M1 Activity (M1 muscarinic receptor; [4]): xxx (activity was measured to be less than 0.1 μM)
- Emax (M1 muscarinic receptor; [5]): 65 to 85%
- M4 Activity (M4 muscarinic receptor; [6]): xx (activity was measured to be between 0.1 μM and 1.0 μM)
- Emax (M4 muscarinic receptor; [7]): < 65%

SMILES: CCOC(=O)N1CCC(N2CCC3(CC2)CN(c2ccccn2)c2ccc(F)cc23)CC1 [compound 585]
- Emax (M1 muscarinic receptor; [1]): 25 to 100%
- M1 Activity (M1 muscarinic receptor; [2]): xxx (activity was measured to be less than 2.0 μM)
- Emax (M4 muscarinic receptor; [1]): 25 to 100%
- M4 Activity (M4 muscarinic receptor; [3]): xxx (activity was measured to be less than 2.0 μM)

SMILES: CC(=O)N1CC2(CCN(C3CC4CCC(C3)N4C(=O)OC(C)C)CC2)c2cc(F)ccc21 (centres unmarked) [compound 94]
- M1 Activity (M1 muscarinic receptor; [4]): xxx (activity was measured to be less than 0.1 μM)
- Emax (M1 muscarinic receptor; [5]): < 65%
- M4 Activity (M4 muscarinic receptor; [6]): xx (activity was measured to be between 0.1 μM and 1.0 μM)
- Emax (M4 muscarinic receptor; [7]): < 65%

SMILES: CCOC(=O)N1CCC(CN2CCC3(CC2)CN(C(C)=O)c2c(F)cc(F)cc23)CC1 [compound 722]
- Emax (M1 muscarinic receptor; [1]): 25 to 100%
- M1 Activity (M1 muscarinic receptor; [2]): xxx (activity was measured to be less than 2.0 μM)
- Emax (M4 muscarinic receptor; [1]): 25 to 100%
- M4 Activity (M4 muscarinic receptor; [3]): xxx (activity was measured to be less than 2.0 μM)

SMILES: CCOC(=O)N1C2CCC1CC(N1CCC3(CC1)CN(S(C)(=O)=O)c1ccc(F)cc13)C2 (centres unmarked) [compound 103]
- M1 Activity (M1 muscarinic receptor; [4]): xxx (activity was measured to be less than 0.1 μM)
- Emax (M1 muscarinic receptor; [5]): 65 to 85%
- M4 Activity (M4 muscarinic receptor; [6]): xx (activity was measured to be between 0.1 μM and 1.0 μM)
- Emax (M4 muscarinic receptor; [7]): < 65%

SMILES: CS(=O)(=O)N[C@H]1CCC2(CCN(CC3CC4C=CC3C4)CC2)c2ccccc21 (some centres unmarked) [compound 627]
- Emax (M1 muscarinic receptor; [1]): 25 to 100%
- M1 Activity (M1 muscarinic receptor; [2]): xxx (activity was measured to be less than 2.0 μM)
- Emax (M4 muscarinic receptor; [1]): 25 to 100%
- M4 Activity (M4 muscarinic receptor; [3]): xxx (activity was measured to be less than 2.0 μM)

SMILES: CC#CCOC(=O)N1CC[C@@H](CN2CCC3(CC2)CN(C(C)=O)c2ccccc23)C1 [compound 886]
- Emax (M1 muscarinic receptor; [1]): 25 to 100%
- M1 Activity (M1 muscarinic receptor; [8]): xxx (activity was measured to be less than 2.0 μM)
- Emax (M4 muscarinic receptor; [1]): 25 to 100%
- M4 Activity (M4 muscarinic receptor; [9]): xxx (activity was measured to be less than 2.0 μM)

SMILES: CC1(C)C(=O)c2ccccc2C12CCN([C@@H]1C[C@@H]3CC[C@H]1C3)CC2 [compound 758]
- Emax (M1 muscarinic receptor; [1]): < 25%
- M1 Activity (M1 muscarinic receptor; [2]): x (activity was measured to be greater than 5.0 μM)
- Emax (M4 muscarinic receptor; [1]): < 25%
- M4 Activity (M4 muscarinic receptor; [3]): x (activity was measured to be greater than 5.0 μM)

SMILES: CN(C)C(=O)N1CC2(CCN(C3CCN(C(=O)O[C@@H]4CCOC4)CC3)CC2)c2cc(F)ccc21 [compound 209]
- M1 Activity (M1 muscarinic receptor; [4]): xx (activity was measured to be between 0.1 μM and 1.0 μM)
- Emax (M1 muscarinic receptor; [5]): > 85%
- M4 Activity (M4 muscarinic receptor; [6]): x (activity was measured to be greater than 1.0 μM)
- Emax (M4 muscarinic receptor; [7]): < 65%

SMILES: CC(=O)N1CC2(CCN(C3CCC(C(F)(F)F)CC3)CC2)c2cc(F)ccc21 (centres unmarked) [compound 236]
- M1 Activity (M1 muscarinic receptor; [4]): xxx (activity was measured to be less than 0.1 μM)
- Emax (M1 muscarinic receptor; [5]): 65 to 85%
- M4 Activity (M4 muscarinic receptor; [6]): xx (activity was measured to be between 0.1 μM and 1.0 μM)
- Emax (M4 muscarinic receptor; [7]): 65 to 85%

SMILES: CCCOC(=O)N1CC[C@H](CN2CCC3(CC2)CN(C(C)=O)c2ccccc23)C1 [compound 518]
- Emax (M1 muscarinic receptor; [1]): < 25%
- M1 Activity (M1 muscarinic receptor; [2]): x (activity was measured to be greater than 5.0 μM)
- Emax (M4 muscarinic receptor; [1]): < 25%
- M4 Activity (M4 muscarinic receptor; [3]): x (activity was measured to be greater than 5.0 μM)

SMILES: CCOC(=O)N1CCC(N2CCC3(CC2)CN(C2CCC(=O)CC2)c2ccc(F)cc23)CC1 [compound 951]
- Emax (M1 muscarinic receptor; [1]): 25 to 100%
- M1 Activity (M1 muscarinic receptor; [8]): xxx (activity was measured to be less than 2.0 μM)
- Emax (M4 muscarinic receptor; [1]): 25 to 100%
- M4 Activity (M4 muscarinic receptor; [9]): xxx (activity was measured to be less than 2.0 μM)

SMILES: CCOC(=O)N1CCC(N2CCC3(CC2)C(=O)N(C)c2ccccc23)CC1 [compound 31]
- M1 Activity (M1 muscarinic receptor; [4]): xxx (activity was measured to be less than 0.1 μM)
- Emax (M1 muscarinic receptor; [5]): > 85%
- M4 Activity (M4 muscarinic receptor; [6]): xxx (activity was measured to be less than 0.1 μM)
- Emax (M4 muscarinic receptor; [7]): 65 to 85%

SMILES: CCCC(=O)N1CC2(CCN(C3CCN(C(=O)OCC)CC3)CC2)c2cc(F)ccc21 [compound 324]
- M1 Activity (M1 muscarinic receptor; [4]): xx (activity was measured to be between 0.1 μM and 1.0 μM)
- Emax (M1 muscarinic receptor; [5]): 65 to 85%
- M4 Activity (M4 muscarinic receptor; [6]): x (activity was measured to be greater than 1.0 μM)
- Emax (M4 muscarinic receptor; [7]): 65 to 85%

SMILES: CC(=O)N[C@H]1CC2(CCN(CC3CCCC3)CC2)c2ccccc21 [compound 934]
- Emax (M1 muscarinic receptor; [1]): 25 to 100%
- M1 Activity (M1 muscarinic receptor; [8]): xx (activity was measured to be between 2.0 μM and 5.0 μM)
- Emax (M4 muscarinic receptor; [1]): 25 to 100%
- M4 Activity (M4 muscarinic receptor; [9]): xxx (activity was measured to be less than 2.0 μM)

SMILES: CC(=O)N1CC2(CCN(C3CCN(c4nncs4)CC3)CC2)c2ccccc21 [compound 973]
- Emax (M1 muscarinic receptor; [1]): 25 to 100%
- M1 Activity (M1 muscarinic receptor; [8]): x (activity was measured to be greater than 5.0 μM)
- Emax (M4 muscarinic receptor; [1]): < 25%
- M4 Activity (M4 muscarinic receptor; [9]): x (activity was measured to be greater than 5.0 μM)

SMILES: CC(=O)N[C@H]1CC2(CCN(CC(=O)N(C)C3CCN(C)CC3)CC2)c2ccccc21 [compound 806]
- Emax (M1 muscarinic receptor; [1]): < 25%
- M1 Activity (M1 muscarinic receptor; [8]): x (activity was measured to be greater than 5.0 μM)
- Emax (M4 muscarinic receptor; [1]): < 25%
- M4 Activity (M4 muscarinic receptor; [9]): x (activity was measured to be greater than 5.0 μM)

SMILES: CCOC(=O)N1CCC(N2CCC3(CC2)CN(c2ccccc2OC)c2ccc(F)cc23)CC1 [compound 717]
- Emax (M1 muscarinic receptor; [1]): 25 to 100%
- M1 Activity (M1 muscarinic receptor; [2]): xxx (activity was measured to be less than 2.0 μM)
- Emax (M4 muscarinic receptor; [1]): 25 to 100%
- M4 Activity (M4 muscarinic receptor; [3]): xxx (activity was measured to be less than 2.0 μM)

SMILES: COC(=O)N1CCCC(CCN2CCC3(CCC(NC(C)=O)c4ccccc43)CC2)C1 (centres unmarked) [compound 936]
- Emax (M1 muscarinic receptor; [1]): 25 to 100%
- M1 Activity (M1 muscarinic receptor; [8]): xxx (activity was measured to be less than 2.0 μM)
- Emax (M4 muscarinic receptor; [1]): < 25%
- M4 Activity (M4 muscarinic receptor; [9]): x (activity was measured to be greater than 5.0 μM)
